Experimental data as given in patent US20180177706A1, “COMPOSITIONS CONTAINING HYALURONIC ACID AND SYNERGISTIC ANTI-HYALURONIDASE ACTIVES” (L'OREAL, priority 2016, published 2018).

What was measured:
[1] = tested on: hyaluronidase (HAase); assay: in vitro dose screening assay of HAase inhibitors; type: biochemical
Protocol: Antioxidants having known hyaluronidase inhibition properties were tested in vitro to establish baseline inhibition. Referring now to the drawings, selected results are shown in the table of FIG. 1, with the known HAase inhibitor Apigenin as a positive control.

[2] = tested on: HAase; assay: HA gel model of HAase inhibition-based kinetic viscoelastic profile measurement; type: biochemical
Protocol: Hyaluronidase inhibition activity was evaluated in a HA gel model of HAase inhibition-based kinetic viscoelastic profile measurement. According to the experimental design, various individual controls and known HAase inhibitors were tested (alone and in combination). In this model, HAase was introduced into a gel composed of HA. Upon exposure, the HAase decomposes the HA gel in a time dependent manner which is directly correlated to the viscosity of the HA gel. Test compounds were introduced to the HA gel system and degree of HAase inhibition as gauged by measuring viscosity (change in viscosity) over time.
At each time point, % of Viscosity Loss is compared to the viscosity of HA gel without enzyme.
To describe the synergy clearly, the “inhibition factor,” below, reflects the extent of inhibition of HAase activity, where n=viscosity: […]

[3] = solubility / formulation observation; type: physicochemical
[4] = tested on: HAase; conditions: stated as known; cited from earlier work

inhibition of HAase (in words) ([1]; concentration of 0.05 mg/mL) | dose effect on HAase inhibition ([1]; up to testing dose of 0.5 mg/ml) | inhibition of hyaluronidase in gel model (in words) [2] | solubility (in words) [3] | inhibition of HAase (in words) ([1]; in vitro assay) | Structure (SMILES) | inhibition of HAase (known) [4]
mild inhibitors | no clear dose effect | very mild effect |  |  | CC1(C)[C@@H](O[C@H]2O[C@H](C(=O)[O-])[C@@H](O)[C@H](O)[C@H]2O[C@@H]2O[C@H](C(=O)[O-])[C@@H](O)[C@H](O)[C@H]2O)CC[C@]2(C)[C@H]3C(=O)C=C4[C@@H]5C[C@@](C)(C(=O)O)CC[C@]5(C)CC[C@@]4(C)[C@]3(C)CC[C@@H]12.[K+].[K+] [dipotassium glycyrrhizate] | 
 |  |  | highly insoluble | very potent inhibitor | O=C(OC[C@H]1O[C@@H](OC(=O)c2cc(O)c(O)c(OC(=O)c3cc(O)c(O)c(O)c3)c2)[C@H](OC(=O)c2cc(O)c(O)c(OC(=O)c3cc(O)c(O)c(O)c3)c2)[C@@H](OC(=O)c2cc(O)c(O)c(OC(=O)c3cc(O)c(O)c(O)c3)c2)[C@@H]1OC(=O)c1cc(O)c(O)c(OC(=O)c2cc(O)c(O)c(O)c2)c1)c1cc(O)c(O)c(OC(=O)c2cc(O)c(O)c(O)c2)c1 [tannic acid] | super-efficient inhibitor
